Laboratory results published in PubChem BioAssay (NCI).
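Cultured in 96-well plates, cells were exposed to test compound for 48 hours across five concentrations. TGI denotes the concentration required for complete inhibition of growth.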

Assays:
Assay in all cases: NCI-60 cell line screen, 48 h
[1] = test system: NCI-H226 lung
[2] = test system: SK-MEL-2 melanoma
[3] = test system: SN12C renal
[4] = test system: RPMI-8226 leukemia
[5] = test system: SF-539 CNS
[6] = test system: ACHN renal
[7] = test system: NCI/ADR-RES ovarian
[8] = test system: U251 CNS
[9] = test system: COLO 205 colon
[10] = test system: UO-31 renal
[11] = test system: HOP-92 NSCLC
[12] = test system: T-47D breast
[13] = test system: MCF7 breast
[14] = test system: SR leukemia
[15] = test system: HCC-2998 colon
[16] = test system: MALME-3M melanoma
[17] = test system: OVCAR-5 ovarian
[18] = test system: HT29 colon
[19] = test system: PC-3 prostate
[20] = test system: SK-OV-3 ovarian
[21] = test system: BT-549 breast
[22] = test system: SF-295 CNS
[23] = test system: SNB-75 CNS
[24] = test system: HCT-116 colon
[25] = test system: K-562 leukemia
[26] = test system: RXF 393 renal
[27] = test system: M14 melanoma
[28] = test system: CCRF-CEM leukemia
[29] = test system: SW-620 colon
[30] = test system: HOP-62 NSCLC
[31] = test system: MDA-MB-435
[32] = test system: NCI-H23 lung
[33] = test system: HS 578T breast
[34] = test system: OVCAR-3 ovarian
[35] = test system: IGROV1 ovarian
[36] = test system: KM12 colon
[37] = test system: TK-10 renal
[38] = test system: OVCAR-8 ovarian
[39] = test system: SF-268 CNS
[40] = test system: NCI-H522 lung
[41] = test system: OVCAR-4 ovarian
[42] = test system: SK-MEL-28 melanoma
[43] = test system: DU-145 prostate
[44] = test system: A549 NSCLC
[45] = test system: HCT-15 colon
[46] = test system: UACC-257 melanoma
[47] = test system: A498 renal
[48] = test system: MDA-N
[49] = test system: MDA-MB-231 breast
[50] = test system: SK-MEL-5 melanoma
[51] = test system: NCI-H460 lung
[52] = test system: 786-0 renal
[53] = test system: CAKI-1 renal
[54] = test system: MOLT-4 leukemia
[55] = test system: UACC-62 melanoma
[56] = test system: LOX IMVI melanoma
[57] = test system: HL-60(TB) leukemia
[58] = test system: EKVX NSCLC
[59] = test system: SNB-19 CNS

CC(=O)N1N=C(c2c(O)ccc3ccccc23)CC1c1ccc(Cl)cc1 (stereo not drawn)
TGI [1]: > 100 µM | TGI [2]: 38.2 µM | TGI [3]: 39.3 µM | TGI [4]: 45.8 µM | TGI [5]: 37.4 µM | TGI [6]: > 100 µM | TGI [7]: 43.9 µM | TGI [8]: 63.1 µM | TGI [9]: 39.2 µM | TGI [10]: 93.4 µM | TGI [11]: 39.5 µM | TGI [12]: > 100 µM | TGI [13]: 35.1 µM | TGI [14]: 28.3 µM | TGI [15]: 34 µM | TGI [16]: 76.8 µM | TGI [17]: 58 µM | TGI [18]: 69.5 µM | TGI [19]: 68.9 µM | TGI [20]: > 100 µM | TGI [21]: 51.1 µM | TGI [22]: 54.2 µM | TGI [23]: > 100 µM | TGI [24]: 28.4 µM | TGI [25]: 43.3 µM | TGI [26]: 42.9 µM | TGI [27]: 33.5 µM | TGI [28]: 25.7 µM | TGI [29]: > 100 µM | TGI [30]: 37 µM | TGI [31]: 51.9 µM | TGI [32]: 46.5 µM | TGI [33]: 45.1 µM | TGI [34]: 32.1 µM | TGI [35]: 63.9 µM | TGI [36]: 29.9 µM | TGI [37]: > 100 µM | TGI [38]: > 100 µM | TGI [39]: > 100 µM | TGI [40]: > 100 µM | TGI [41]: > 100 µM | TGI [42]: 74 µM | TGI [43]: > 100 µM | TGI [44]: > 100 µM | TGI [45]: > 100 µM | TGI [46]: > 100 µM | TGI [47]: 66.3 µM | TGI [48]: 40.5 µM | TGI [49]: 43.5 µM | TGI [50]: 47 µM | TGI [51]: 48.1 µM | TGI [52]: > 100 µM | TGI [53]: > 100 µM | TGI [54]: 31 µM | TGI [55]: 27.6 µM

COc1ccc(/C=C2\CN(C)CC3C2=NC(=S)NC3c2ccc(OC)cc2)cc1 (stereo not drawn)
TGI [1]: > 100 µM | TGI [2]: > 64.8 µM | TGI [3]: > 100 µM | TGI [4]: > 24.7 µM | TGI [5]: 59.5 µM | TGI [56]: > 100 µM | TGI [6]: > 100 µM | TGI [7]: 19.1 µM | TGI [8]: > 52.6 µM | TGI [9]: > 39.3 µM | TGI [10]: > 100 µM | TGI [11]: 94.3 µM | TGI [12]: > 29.9 µM | TGI [13]: > 100 µM | TGI [14]: > 100 µM | TGI [15]: > 100 µM | TGI [57]: 14.8 µM | TGI [58]: > 100 µM | TGI [16]: > 31.4 µM | TGI [17]: > 86 µM | TGI [18]: 83.1 µM | TGI [19]: > 50 µM | TGI [20]: > 100 µM | TGI [21]: > 100 µM | TGI [22]: > 75.8 µM | TGI [24]: > 44.7 µM | TGI [25]: > 100 µM | TGI [26]: 7.49 µM | TGI [27]: 15.8 µM | TGI [28]: > 24.7 µM | TGI [29]: > 100 µM | TGI [30]: > 100 µM | TGI [31]: 7.86 µM | TGI [59]: > 100 µM | TGI [32]: > 94.1 µM | TGI [33]: > 100 µM | TGI [34]: 10.3 µM | TGI [35]: > 22.6 µM | TGI [36]: > 65.8 µM | TGI [37]: > 100 µM | TGI [38]: > 100 µM | TGI [39]: > 100 µM | TGI [40]: > 20.8 µM | TGI [41]: > 70.8 µM | TGI [42]: > 100 µM | TGI [43]: 26.4 µM | TGI [44]: > 100 µM | TGI [45]: > 100 µM | TGI [46]: > 100 µM | TGI [47]: 26.3 µM | TGI [48]: 3.74 µM | TGI [49]: > 59.1 µM | TGI [50]: > 100 µM | TGI [51]: 59.8 µM | TGI [52]: > 68.5 µM | TGI [53]: > 100 µM | TGI [54]: > 81.1 µM | TGI [55]: > 100 µM
